Data: patent publication US7118895B2, “Process for producing aglycon by using diglycosidase and flavor-improved food containing the aglycon and converting agent to be used in the process” (Amano Enzyme Inc., priority 2000, dated 2006)

Tested on: Crude diglycosidase
Assay: Examination of pH in the conversion into isoflavone aglycons by diglycosidase using soybean materials
Assay type: biochemical, Penicillium multicolor IAM7153
Design: Decomposition efficiency of genistin family in soymilk / Decomposition efficiency of genistin family in defatted soybean / Decomposition efficiency of daidzin family in defatted soybean: concentration or dose not given beside the values
Method in brief: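 Soybean materials (roasted soy flour, soymilk, defatted soybean, concentrated soy protein) suspended and adjusted to pH 2–11. Crude diglycosidase added at 1.88 AU/mL enzyme solution and reacted at 55° C. Ethanol-stopped at 0, 1, 3 and 6 h; isoflavone glycosides and aglycons detected by HPLC.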

Decomposition efficiency of genistin family in defatted soybean (pH2.6, heat treatment of enzyme: no, reaction time 1 h): 17.7%
Decomposition efficiency of genistin family in defatted soybean (pH2.6, heat treatment of enzyme: no, reaction time 3 h): 32.7%
Decomposition efficiency of genistin family in defatted soybean (pH2.6, heat treatment of enzyme: no, reaction time 6 h): 34.6%
Decomposition efficiency of genistin family in defatted soybean (pH3.4, heat treatment of enzyme: no, reaction time 1 h): 56.9%
Decomposition efficiency of genistin family in defatted soybean (pH3.4, heat treatment of enzyme: no, reaction time 3 h): 62.5%
Decomposition efficiency of genistin family in defatted soybean (pH3.4, heat treatment of enzyme: no, reaction time 6 h): 68.8%
Decomposition efficiency of genistin family in defatted soybean (pH3.4, heat treatment of enzyme: yes, reaction time 6 h): 14.1%
Decomposition efficiency of genistin family in defatted soybean (pH4.8, heat treatment of enzyme: no, reaction time 0 h): 14.5%
Decomposition efficiency of genistin family in defatted soybean (pH4.8, heat treatment of enzyme: no, reaction time 1 h): 56.1%
Decomposition efficiency of genistin family in defatted soybean (pH4.8, heat treatment of enzyme: no, reaction time 3 h): 61.9%
Decomposition efficiency of genistin family in defatted soybean (pH4.8, heat treatment of enzyme: no, reaction time 6 h): 68.5%
Decomposition efficiency of genistin family in defatted soybean (pH4.8, heat treatment of enzyme: yes, reaction time 6 h): 25.2%
Decomposition efficiency of genistin family in defatted soybean (pH5.4, heat treatment of enzyme: no, reaction time 0 h): 14.5%
Decomposition efficiency of genistin family in defatted soybean (pH5.4, heat treatment of enzyme: no, reaction time 1 h): 51.5%
Decomposition efficiency of genistin family in defatted soybean (pH5.4, heat treatment of enzyme: no, reaction time 3 h): 55.4%
Decomposition efficiency of genistin family in defatted soybean (pH5.4, heat treatment of enzyme: no, reaction time 6 h): 60.3%
Decomposition efficiency of genistin family in defatted soybean (pH5.4, heat treatment of enzyme: yes, reaction time 6 h): 48.0%
Decomposition efficiency of genistin family in defatted soybean (pH6.6, heat treatment of enzyme: no, reaction time 1 h): 49.3%
Decomposition efficiency of genistin family in defatted soybean (pH6.6, heat treatment of enzyme: no, reaction time 3 h): 51.4%
Decomposition efficiency of genistin family in defatted soybean (pH6.6, heat treatment of enzyme: no, reaction time 6 h): 53.7%
Decomposition efficiency of genistin family in defatted soybean (pH6.6, heat treatment of enzyme: yes, reaction time 6 h): 46.4%
Decomposition efficiency of genistin family in defatted soybean (pH7.8, heat treatment of enzyme: no, reaction time 1 h): 36.7%
Decomposition efficiency of genistin family in defatted soybean (pH7.8, heat treatment of enzyme: no, reaction time 3 h): 42.5%
Decomposition efficiency of genistin family in defatted soybean (pH7.8, heat treatment of enzyme: no, reaction time 6 h): 45.7%
Decomposition efficiency of genistin family in defatted soybean (pH7.8, heat treatment of enzyme: yes, reaction time 6 h): 22.0%
SMILES: O=c1c(-c2ccc(O)cc2)coc2cc(O)cc(O)c12 [genistein]
